In patent US8048862B2, “Macrocyclic inhibitors of hepatitis C virus replication” (priority 2008, dated 2011):
Where two headings read alike, the source gives them in different places.

Assays:
NS3/NS4 complexes = NS3/NS4 complexes (Hepatitis C virus genotype 1a, UniProt P27958); experiment: NS3/NS4 inhibition activity (IC50); format: biochemical
Outline: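 NS3/NS4 complexes were formed and compound inhibitory concentrations determined at ambient temperature (23 °C). The buffer contained 50 mM Tris-HCl pH 7.5, 15% glycerol, 0.6 mM LDAO, 25 μM NS4A peptide and 10 mM DTT.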

hepatitis C replicon = hepatitis C replicon EC50; format: cell-based; settings: Hepatitis C virus, hepatitis C replicon, read-out: EC50
Excerpt: NS3-NS4 inhibition activity can be determined using known assay methods.

NS3/NS4 complexes, sequence (P27958 1027-1657): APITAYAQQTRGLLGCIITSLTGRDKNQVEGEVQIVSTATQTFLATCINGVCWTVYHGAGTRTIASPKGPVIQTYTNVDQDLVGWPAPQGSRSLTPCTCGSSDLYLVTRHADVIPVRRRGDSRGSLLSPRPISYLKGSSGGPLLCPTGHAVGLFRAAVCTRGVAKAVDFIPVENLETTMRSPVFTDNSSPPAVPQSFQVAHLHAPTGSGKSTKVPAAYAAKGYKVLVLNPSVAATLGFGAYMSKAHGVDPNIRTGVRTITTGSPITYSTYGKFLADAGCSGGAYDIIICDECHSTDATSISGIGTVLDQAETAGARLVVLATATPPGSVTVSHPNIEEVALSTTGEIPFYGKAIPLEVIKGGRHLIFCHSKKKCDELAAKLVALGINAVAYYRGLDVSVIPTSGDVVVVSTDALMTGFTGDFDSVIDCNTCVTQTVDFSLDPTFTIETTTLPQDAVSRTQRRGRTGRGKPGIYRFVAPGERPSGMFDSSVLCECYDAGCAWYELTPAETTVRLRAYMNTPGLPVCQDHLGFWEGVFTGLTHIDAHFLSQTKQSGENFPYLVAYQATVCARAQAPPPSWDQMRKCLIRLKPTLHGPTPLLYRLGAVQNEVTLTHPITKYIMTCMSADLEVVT
NS3/NS4 complexes, sequence (P27958 1658-1711): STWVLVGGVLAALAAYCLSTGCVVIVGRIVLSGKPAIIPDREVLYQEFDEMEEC

| SMILES | IC50 (NS3/NS4 complexes; Table 2, read-out: IC50) [nM] | EC50 (hepatitis C replicon; Table 2) [nM] | IC50 (NS3/NS4 complexes; IC50, Table 3) [nM] | EC50 (hepatitis C replicon; Table 3) [nM] | IC50 (NS3/NS4 complexes; Table 3, read-out: IC50) [nM] |
| --- | --- | --- | --- | --- | --- |
| COc1ccc2c(O[C@@H]3C[C@H]4C(=O)N[C@]5(C(=O)NS(=O)(=O)N(C)C)C[C@H]5/C=C\CCCCC[C@H](Nc5ccc(C(F)(F)F)cc5)C(=O)N4C3)cc(-c3nc(C(C)C)cs3)nc2c1C [Compound 458] | < 10 | 10 to 75 | – | – | – |
| COc1ccc2c(O[C@@H]3C[C@H]4C(=O)N[C@]5(C(=O)NS(=O)(=O)N(C)C)C[C@H]5/C=C\CCCCC[C@H](Nc5ccc(F)c(C(F)(F)F)c5)C(=O)N4C3)cc(-c3nc(C(C)C)cs3)nc2c1C [Compound 459] | < 10 | < 10 | – | – | – |
| COc1ccc2c(O[C@@H]3C[C@H]4C(=O)N[C@]5(C(=O)NS(=O)(=O)N(C)C)C[C@H]5/C=C\CCCCC[C@H](Nc5cc(F)cc(C(F)(F)F)c5)C(=O)N4C3)cc(-c3nc(C(C)C)cs3)nc2c1C [Compound 460] | < 10 | < 10 | – | – | – |
| CC(C)n1c(O[C@@H]2C[C@H]3C(=O)N[C@]4(C(=O)NS(=O)(=O)C5(C)CC5)C[C@H]4/C=C\CCCCC[C@H](Nc4ccccc4)C(=O)N3C2)nc2ccc(F)cc21 [Compound 461] | < 10 | 10 to 75 | – | – | – |
| Cc1ccc2nc(O[C@@H]3C[C@H]4C(=O)N[C@]5(C(=O)NS(=O)(=O)C6(C)CC6)C[C@H]5/C=C\CCCCC[C@H](Nc5ccccc5)C(=O)N4C3)n(C(C)C)c2c1 [Compound 462] | < 10 | 10 to 75 | – | – | – |
| CC(C)n1c(O[C@@H]2C[C@H]3C(=O)N[C@]4(C(=O)NS(=O)(=O)C5(C)CC5)C[C@H]4CCCCCCC[C@H](Nc4cc(F)cc(C(F)(F)F)c4)C(=O)N3C2)nc2ccccc21 [Compound 465] | < 10 | 75 to 500 | – | – | – |
| CCn1c(O[C@@H]2C[C@H]3C(=O)N[C@]4(C(=O)NS(=O)(=O)C5(C)CC5)C[C@H]4CCCCCCC[C@H](Nc4cc(F)cc(C(F)(F)F)c4)C(=O)N3C2)nc2ccccc21 [Compound 466] | < 10 | 75 to 500 | – | – | – |
| CC(C)n1c(O[C@@H]2C[C@H]3C(=O)N[C@]4(C(=O)NS(=O)(=O)C5(C)CC5)C[C@H]4/C=C\CCCCC[C@H](Nc4ccccc4)C(=O)N3C2)nc2cccc(F)c21 [Compound 467] | < 10 | 10 to 75 | – | – | – |
| CC(C)n1c(O[C@@H]2C[C@H]3C(=O)N[C@]4(C(=O)NS(=O)(=O)C5(C)CC5)C[C@H]4/C=C\CCCCC[C@H](Nc4ccccc4)C(=O)N3C2)nc2cc(F)ccc21 [Compound 468] | < 10 | < 10 | – | – | – |
| CC(C)n1c(O[C@@H]2C[C@H]3C(=O)N[C@]4(C(=O)NS(=O)(=O)C5(C)CC5)C[C@H]4/C=C\CCCCC[C@H](Nc4ccccc4)C(=O)N3C2)nc2c(F)cccc21 [Compound 469] | < 10 | < 10 | – | – | – |
| Cc1ccc2c(c1)nc(O[C@@H]1C[C@H]3C(=O)N[C@]4(C(=O)NS(=O)(=O)C5(C)CC5)C[C@H]4/C=C\CCCCC[C@H](Nc4ccccc4)C(=O)N3C1)n2C(C)C [Compound 470] | < 10 | 10 to 75 | – | – | – |
| Cc1cccc2c1nc(O[C@@H]1C[C@H]3C(=O)N[C@]4(C(=O)NS(=O)(=O)C5(C)CC5)C[C@H]4/C=C\CCCCC[C@H](Nc4ccccc4)C(=O)N3C1)n2C(C)C [Compound 471] | < 10 | 10 to 75 | – | – | – |
| COc1ccc2c(O[C@@H]3C[C@H]4C(=O)N[C@]5(C(=O)NS(=O)(=O)C6(C)CC6)C[C@H]5/C=C\CCCCC[C@H](Nc5ccccc5C)C(=O)N4C3)cc(-c3nc(C(C)C)cs3)nc2c1C [Compound 472] | < 10 | 10 to 75 | – | – | – |
| COc1ccc2c(O[C@@H]3C[C@H]4C(=O)N[C@]5(C(=O)NS(=O)(=O)C6(C)CC6)C[C@H]5/C=C\CCCCC[C@H](Nc5ccc(F)c(F)c5)C(=O)N4C3)cc(-c3nc(C(C)C)cs3)nc2c1C [Compound 473] | < 10 | < 10 | – | – | – |
| CNC(=O)c1cccc(N[C@H]2CCCCC/C=C\[C@@H]3C[C@@]3(C(=O)NS(=O)(=O)C3(C)CC3)NC(=O)[C@@H]3C[C@@H](Oc4cc(-c5nc(C(C)C)cs5)nc5c(C)c(OC)ccc45)CN3C2=O)c1 [Compound 474] | < 10 | < 10 | – | – | – |
| COc1ccc2c(O[C@@H]3C[C@H]4C(=O)N[C@]5(C(=O)NS(=O)(=O)C6(C)CC6)C[C@H]5/C=C\CCCCC[C@H](Nc5cccc(NC(C)=O)c5)C(=O)N4C3)cc(-c3nc(C(C)C)cs3)nc2c1C [Compound 475] | < 10 | < 10 | – | – | – |
| COc1ccc2c(O[C@@H]3C[C@H]4C(=O)N[C@]5(C(=O)NS(=O)(=O)C6(C)CC6)C[C@H]5/C=C\CCCCC[C@H](Nc5cccc(C#N)c5)C(=O)N4C3)cc(-c3nc(C(C)C)cs3)nc2c1C [Compound 476] | < 10 | < 10 | – | – | – |
| COc1ccc2c(O[C@@H]3C[C@H]4C(=O)N[C@]5(C(=O)NS(=O)(=O)C6(C)CC6)C[C@H]5/C=C\CCCCC[C@H](Nc5cccc(C)c5)C(=O)N4C3)cc(-c3nc(C(C)C)cs3)nc2c1C [Compound 477] | < 10 | < 10 | – | – | – |
| COc1cccc(N[C@H]2CCCCC/C=C\[C@@H]3C[C@@]3(C(=O)NS(=O)(=O)C3(C)CC3)NC(=O)[C@@H]3C[C@@H](Oc4cc(-c5nc(C(C)C)cs5)nc5c(C)c(OC)ccc45)CN3C2=O)c1 [Compound 478] | < 10 | 75 to 500 | – | – | – |

| SMILES | IC50 (NS3/NS4 complexes; Table 2, read-out: IC50) [nM] | EC50 (hepatitis C replicon; Table 2) [nM] | IC50 (NS3/NS4 complexes; IC50, Table 3) [nM] | EC50 (hepatitis C replicon; Table 3) [nM] | IC50 (NS3/NS4 complexes; Table 3, read-out: IC50) [nM] |
| --- | --- | --- | --- | --- | --- |
| COc1ccc2c(O[C@@H]3C[C@H]4C(=O)N[C@]5(C(=O)NS(=O)(=O)C6(C)CC6)C[C@H]5/C=C\CCCCC[C@H](Nc5cccc(C(=O)N(C)C)c5)C(=O)N4C3)cc(-c3nc(C(C)C)cs3)nc2c1C [Compound 479] | < 10 | < 10 | – | – | – |
| COc1ccc2c(O[C@@H]3C[C@H]4C(=O)N[C@]5(C(=O)NS(=O)(=O)C6(C)CC6)C[C@H]5/C=C\CCCCC[C@H](Nc5cc(F)c(F)c(F)c5)C(=O)N4C3)cc(-c3nc(C(C)C)cs3)nc2c1C [Compound 480] | < 10 | 10 to 75 | – | – | – |
| COc1ccc2c(O[C@@H]3C[C@H]4C(=O)N[C@]5(C(=O)NS(=O)(=O)C6(C)CC6)C[C@H]5/C=C\CCCCC[C@H](Nc5ccc(C#N)cc5)C(=O)N4C3)cc(-c3nc(C(C)C)cs3)nc2c1C [Compound 481] | < 10 | < 10 | – | – | – |
| COc1ccc2c(O[C@@H]3C[C@H]4C(=O)N[C@]5(C(=O)NS(=O)(=O)C6(C)CC6)C[C@H]5/C=C\CCCCC[C@H](Nc5cc(C)cc(F)c5)C(=O)N4C3)cc(-c3nc(C(C)C)cs3)nc2c1C [Compound 482] | < 10 | < 10 | – | – | – |
| CC1(S(=O)(=O)NC(=O)[C@@]23C[C@H]2/C=C\CCCCC[C@H](Nc2ccccc2)C(=O)N2C[C@H](Oc4nc5ccccc5nc4-c4cccs4)C[C@H]2C(=O)N3)CC1 [Compound 486] | < 10 | 10 to 75 | – | – | – |
| COc1ccc2c(O[C@@H]3C[C@H]4C(=O)N[C@]5(C(=O)NS(=O)(=O)C6(C)CC6)C[C@H]5/C=C\CCCCC[C@H](Nc5ccccc5F)C(=O)N4C3)cc(-c3nc(C(C)C)cs3)nc2c1C [Compound 492] | < 10 | 10 to 75 | – | – | – |
| CC(C)(C)OC(=O)N[C@H]1CCCCC/C=C\[C@@H]2C[C@@]2(C(=O)NS(=O)(=O)C2(C)CC2)NC(=O)[C@@H]2C[C@@H](Oc3nc4ccccc4n3COCC[Si](C)(C)C)CN2C1=O [Compound 701] | – | – | < 10 | 10 to 100 | – |
| CC(C)(C)OC(=O)N[C@H]1CCCCC/C=C\[C@@H]2C[C@@]2(C(=O)O)NC(=O)[C@@H]2C[C@@H](Oc3nc4ccccc4s3)CN2C1=O [Compound 1001] | – | – | – | > 100 | 10 to 100 |
| CCn1c(O[C@@H]2C[C@H]3C(=O)N[C@]4(C(=O)NS(=O)(=O)C5CC5)C[C@H]4/C=C\CCCCC[C@H](NC(=O)OC(C)(C)C)C(=O)N3C2)nc2ccccc21 [Compound 1007] | – | – | – | < 10 | < 10 |
| CC(C)(C)OC(=O)N[C@H]1CCCCC/C=C\[C@@H]2C[C@@]2(C(=O)NS(=O)(=O)C2(C)CC2)NC(=O)[C@@H]2C[C@@H](Oc3nc4ccccc4s3)CN2C1=O [Compound 1008] | – | – | – | < 10 | < 10 |
| CC(C)(C)OC(=O)N[C@H]1CCCCC/C=C\[C@@H]2C[C@@]2(C(=O)NS(=O)(=O)C2CC2)NC(=O)[C@@H]2C[C@@H](Oc3nc4ccccc4s3)CN2C1=O [Compound 1009] | – | – | – | < 10 | < 10 |
| CC(C)(C)OC(=O)N[C@H]1CCCCC/C=C\[C@@H]2C[C@@]2(C(=O)NS(=O)(=O)C2CC2)NC(=O)[C@@H]2C[C@@H](Oc3nc4ccc(F)cc4s3)CN2C1=O [Compound 1010] | – | – | – | 10 to 100 | < 10 |
| CC(C)(C)OC(=O)N[C@H]1CCCCC/C=C\[C@@H]2C[C@@]2(C(=O)NS(=O)(=O)C2(C)CC2)NC(=O)[C@@H]2C[C@@H](Oc3nc4ccc(F)cc4s3)CN2C1=O [Compound 1011] | – | – | – | 10 to 100 | < 10 |
| CC(C)(C)OC(=O)N[C@H]1CCCCC/C=C\[C@@H]2C[C@@]2(C(=O)NS(=O)(=O)C2CC2)NC(=O)[C@@H]2C[C@@H](Oc3nc4ccc(Br)cc4s3)CN2C1=O [Compound 1012] | – | – | – | < 10 | < 10 |
| CC(C)(C)OC(=O)N[C@H]1CCCCC/C=C\[C@@H]2C[C@@]2(C(=O)NS(=O)(=O)C2(C)CC2)NC(=O)[C@@H]2C[C@@H](Oc3nc4ccc(Br)cc4s3)CN2C1=O [Compound 1013] | – | – | – | < 10 | < 10 |
| Cc1ccc2nc(O[C@@H]3C[C@H]4C(=O)N[C@]5(C(=O)NS(=O)(=O)C6(C)CC6)C[C@H]5/C=C\CCCCC[C@H](NC(=O)OC(C)(C)C)C(=O)N4C3)sc2c1 [Compound 1014] | – | – | – | < 10 | < 10 |
| Cc1ccc2nc(O[C@@H]3C[C@H]4C(=O)N[C@]5(C(=O)NS(=O)(=O)C6CC6)C[C@H]5/C=C\CCCCC[C@H](NC(=O)OC(C)(C)C)C(=O)N4C3)sc2c1 [Compound 1015] | – | – | – | < 10 | < 10 |
| COc1ccc2nc(O[C@@H]3C[C@H]4C(=O)N[C@]5(C(=O)NS(=O)(=O)C6(C)CC6)C[C@H]5/C=C\CCCCC[C@H](NC(=O)OC(C)(C)C)C(=O)N4C3)sc2c1 [Compound 1016] | – | – | – | 10 to 100 | < 10 |
| CC(C)(C)OC(=O)N[C@H]1CCCCC/C=C\[C@@H]2C[C@@]2(C(=O)NS(=O)(=O)C2CC2)NC(=O)[C@@H]2C[C@@H](Oc3nc4ccc(Cl)cc4s3)CN2C1=O [Compound 1018] | – | – | – | 10 to 100 | < 10 |
